Data published in US20180049996A1, “THERAPEUTIC AGENT FOR CHRONIC RESPIRATORY DISEASE AND COMPOSITION FOR INHIBITING CARDIAC FIBROSIS” (NIPPON HYPOX LABORATORIES INCORPORATED, priority 2015, published 2018).

What was measured:
TNF-α = TNF-α level in BAL fluid (ELISA), COPD model; type: in vivo, C57BL/6N mice; conditions: HTHQ 10 and 20 mg/kg/day oral; tobacco smoke 10 days + LPS; compared to COPD model group
Method: 6 week old male SPF C57BL/6N mice, 20 to 25 g of body weight, were purchased from CORETEC INC. (South Korea).
The tests were conducted as follows. The mice in the COPD (chronic obstructive pulmonary disease) model group of the test groups were exposed to tobacco smoke for 1 hour per day (8 cigarettes/day) for 10 days and LPS (5 μg/50 μL/mouse) was intranasally administered to the mice on day 8 after the start of the tests. […]
The mice in the test groups were euthanized 72 hours after the LPS administration and the mice in the normal control group were euthanized on day 11 after the start of the tests by intraperitoneal injection of pentobarbital (Hanrimu pharmaceutical, South Korea) at 50 mg/kg and then the bronchi were excised. […] After preparing slide samples from 100 μL of BAL cell fluid using Cytospin (4° C., 1000 rpm×5 min), the cell numbers of inflammatory cells (neutrophil, macrophages) present in the BAL fluid were counted using a Diff-Quik stain kit.
The supernatant of the BAL fluid stored was taken out of the super-cryostat, and TNF-α and IL-6 levels were measured as the levels of pro-inflammatory cytokines in the supernatant. A quantitative ELISA kit (a product from Invitrogen) and an ELISA analyzer (a product from Molecular Devices, LLC.) were used for the measurement and the measurement wavelength was 450 nm.

IL-13 = IL-13 level in BAL fluid (ELISA), ovalbumin asthma model; type: in vivo, BALB/c female mice; conditions: HTHQ 20 and 40 mg/kg/day oral; compared to OVA group
Method: 6 week old BALB/c female mice were purchased and the mice were divided into 5 groups with 5 animals per group shown in Table 3 below after habituation breeding of about 2 weeks.
The test was conducted on the schedule of sensitization, causing diseases and administration of test materials shown in FIG. 12. “IP” in FIG. 12 refers to ovalbumin sensitization treatment by the intraperitoneal administration of ovalbumin/aluminum hydroxide, and “IH” refers to inhalation exposure treatment of ovalbumin, and “PO” refers to the administration of the test materials. […]
All mice were euthanized by intraperitoneal injection of pentobarbital (Hanrimu pharmaceutical, South Korea) at 50 mg/kg and the bronchi were excised on day 25 of the test. […] After preparing slide samples from 100 μL of BAL cell fluid using Cytospin (4° C., 1000 rpm×5 min), the cell numbers of inflammatory cells (eosinophils, macrophages, lymphocytes and neutrophils) present in the BAL fluid were counted using a Diff-Quik stain kit.
The supernatant of the BAL fluid stored was taken out of the super-cryostat and IL-4, IL-5 and IL-13 levels were measured as the pro-inflammatory cytokine contents in the supernatant of the BAL fluid. A quantitative ELISA kit (a product from R&D systems) and a microplate reader (a product from Bio-Rad Laboratories, Inc.) were used for the measurement and the measurement wavelength was 450 nm.

`CCCCCCOc1cc(C)c(O)c(C)c1C` [HTHQ, 2,3,5-trimethylhydroquinone-1-hexyl ether] was tested, and the “TNF-α level in BAL fluid” value (TNF-α) was “effectively reduced” and the “IL-13 content in BAL fluid” value (IL-13) was “significantly reduced”.
